Test results taken from patent US20120123760A1, “METHOD FOR DESIGNING AN APTAMER” (Technology Innovations, LLC, priority 2010, published 2012).

Legend:
[1] = Fluorescence assay of 6FAM-labelled aptamer bound to DPPC alone liposomes (control without PS); assay type: binding; settings: FIG. 8 right panel
From the text: (§1) Two of the top-ranked 6-mer DNA designed aptamers targeting PS were chosen for experimental investigations. Both sequences containing fluorescence tags (6FAM is on the 3′ end of the DNA sequence) were obtained from Integrated DNA Technologies, Commercial Park, Coralville Iowa, USA. 96 well assay plates for fluorescence assays using FLUOstar OPTIMA (BMG Labtech GmbH, Offenburg, Germany) were from Corning Inc., New York, USA. Two lipids, 1,2-dipalmitoyl-sn-glycero-3-phosphatidylcholine (DPPC) and 1,2-dipalmitoyl-sn-glycero-3-phospho-L-serine (sodium salt) (DPPS) in chloroform stock and cholesterol (powder) were obtained from Avanti Polar Lipids (Alabaster, Ala., USA). They were used without further purification.
(§2) Two liposomes were prepared for studying binding affinity and specificity. One uses DPPC and DPPS at a 10:1 DPPC/DPPS molar ratio and the second one uses DPPC alone. […] 100 μL from this final solution was loaded into each of the 96 wells on the fluorescence plate to measure fluorescence of the samples. […]
(§3) Both sequences containing fluorescence tags (6FAM is on the 3′ end of the DNA sequence) were obtained from Integrated DNA Technologies, Commercial Park, Coralville Iowa, USA. 96 well assay plates for fluorescence assays using FLUOstar OPTIMA (BMG Labtech GmbH, Offenburg, Germany) were from Corning Inc., New York, USA. […]

[2] = Fluorescence assay of 6FAM-labelled aptamer bound to DPPC+DPPS liposomes; assay type: binding
From the text: as §1, §2, §3

AAAGAC [PS-aptamer II]
fluorescence level from bound DNA aptamer [1]: binds either poorly or not at all | binding affinity (inferred from fluorescence) [2]: relatively better or stronger binding affinity than PS-aptamer I | fluorescence level from bound DNA aptamer ([2]; FIG. 8 left panel, aptamer beyond 0.165 nmol): higher fluorescence level than PS-aptamer I
